IC50 data for 13 compounds are collected here from US8633206B2, “Pyrrolo[2,3-D]pyrimidine compounds” (Pfizer Inc., priority 2009, dated 2014).

Holding throughout (format): biochemical
One assay has as its target JAK1 (Homo sapiens (Human), UniProt P23458). Briefly: JAK enzymatic assay (peptide mobility shift), JAK1. The settings on record: recombinant JAK1 20 nM, IRS-1 peptide, 240 minutes.
A further assay has as its target JAK2 (Homo sapiens (Human), UniProt O60674). Briefly: JAK enzymatic assay (peptide mobility shift), JAK2. The note with it: recombinant JAK2 2 nM, JAKtide peptide, 150 minutes.
The target of the next assay is JAK3 (Homo sapiens (Human), UniProt P52333). The experiment in a line: JAK enzymatic assay (peptide mobility shift), JAK3. The note with it: recombinant JAK3 1 nM, JAKtide peptide, 90 minutes.
Sequence of JAK3 (P52333 781-1124): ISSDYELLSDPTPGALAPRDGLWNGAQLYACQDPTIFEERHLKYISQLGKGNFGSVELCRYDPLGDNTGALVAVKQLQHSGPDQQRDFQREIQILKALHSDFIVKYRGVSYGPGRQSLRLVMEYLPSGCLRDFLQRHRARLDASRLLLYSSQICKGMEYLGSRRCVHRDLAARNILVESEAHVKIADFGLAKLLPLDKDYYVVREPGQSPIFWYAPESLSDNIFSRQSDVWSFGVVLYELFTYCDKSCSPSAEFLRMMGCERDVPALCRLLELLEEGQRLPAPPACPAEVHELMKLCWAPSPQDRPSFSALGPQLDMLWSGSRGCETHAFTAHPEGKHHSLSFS

As usually defined, the IC50 is the concentration that gives 50% inhibition.

Sequence of JAK2 (O60674 808-1132): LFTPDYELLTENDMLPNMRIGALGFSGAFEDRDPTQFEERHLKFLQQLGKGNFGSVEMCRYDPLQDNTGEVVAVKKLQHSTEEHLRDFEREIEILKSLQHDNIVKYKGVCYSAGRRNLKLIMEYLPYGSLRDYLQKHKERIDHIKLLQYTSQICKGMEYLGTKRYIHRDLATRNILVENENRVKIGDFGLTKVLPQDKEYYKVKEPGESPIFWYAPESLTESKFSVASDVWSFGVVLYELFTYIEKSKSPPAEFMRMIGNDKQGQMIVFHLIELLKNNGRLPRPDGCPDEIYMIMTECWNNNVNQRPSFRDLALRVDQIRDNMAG
Sequence of JAK1 (P23458 whole entry): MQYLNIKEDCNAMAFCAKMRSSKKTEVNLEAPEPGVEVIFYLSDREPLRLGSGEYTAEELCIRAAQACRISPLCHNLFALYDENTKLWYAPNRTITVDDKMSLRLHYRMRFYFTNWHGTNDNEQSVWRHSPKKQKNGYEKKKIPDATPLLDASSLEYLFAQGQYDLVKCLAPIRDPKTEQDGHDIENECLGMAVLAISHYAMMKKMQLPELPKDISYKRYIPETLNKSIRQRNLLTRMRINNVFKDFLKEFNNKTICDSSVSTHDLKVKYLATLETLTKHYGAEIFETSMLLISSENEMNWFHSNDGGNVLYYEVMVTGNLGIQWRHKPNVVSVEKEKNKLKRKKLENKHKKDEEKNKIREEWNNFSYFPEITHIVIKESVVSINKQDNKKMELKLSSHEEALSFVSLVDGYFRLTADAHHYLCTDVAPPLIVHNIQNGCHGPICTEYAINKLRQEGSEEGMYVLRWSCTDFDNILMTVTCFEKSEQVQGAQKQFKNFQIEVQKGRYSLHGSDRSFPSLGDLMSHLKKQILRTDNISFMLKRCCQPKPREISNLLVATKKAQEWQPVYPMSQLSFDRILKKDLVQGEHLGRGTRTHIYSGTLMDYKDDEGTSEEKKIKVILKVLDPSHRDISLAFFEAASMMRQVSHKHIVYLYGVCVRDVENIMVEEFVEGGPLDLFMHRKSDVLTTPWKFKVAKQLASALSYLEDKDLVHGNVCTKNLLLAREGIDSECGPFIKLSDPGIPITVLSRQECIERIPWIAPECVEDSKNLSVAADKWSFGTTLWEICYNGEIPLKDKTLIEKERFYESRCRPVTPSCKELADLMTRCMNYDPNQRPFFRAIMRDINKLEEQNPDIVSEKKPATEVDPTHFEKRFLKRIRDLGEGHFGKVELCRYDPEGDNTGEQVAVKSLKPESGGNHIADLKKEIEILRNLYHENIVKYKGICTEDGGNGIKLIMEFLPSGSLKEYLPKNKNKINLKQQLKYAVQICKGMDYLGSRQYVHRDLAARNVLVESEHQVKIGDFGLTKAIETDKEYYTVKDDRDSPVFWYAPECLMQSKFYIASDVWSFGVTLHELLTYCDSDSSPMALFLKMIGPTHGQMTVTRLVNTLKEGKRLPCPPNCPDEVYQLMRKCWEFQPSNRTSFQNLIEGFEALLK

Turning to `CN(c1ncnc2[nH]ccc12)[C@H]1CC[C@H](CS(=O)(=O)N2CCN(c3ncccc3C#N)CC2)CC1` [Example 122, 2-{4-[({trans-4-[methyl(7H-pyrrolo[2,3-d]pyrimidin-4-yl)amino]cyclohexyl}-methyl)sulfonyl]piperazin-1-yl}nicotinonitrile], the IC50 stood at 12.1 nM at JAK1, 17.6 nM at JAK2 and 271 nM at JAK3.
The corresponding values for `CN(c1ncnc2[nH]ccc12)[C@H]1CC[C@H](CS(=O)(=O)N2CCN(Cc3ccccn3)CC2)CC1` [Example 123, N-methyl-N-[trans-4-({[4-(pyridin-2-ylmethyl)-piperazin-1-yl]sulfonyl}-methyl)cyclohexyl]-7H-pyrrolo[2,3-d]pyrimidin-4-amine] are 13.7 nM, 49.8 nM and 323 nM.
The corresponding values for `CN(c1ncnc2[nH]ccc12)[C@H]1CC[C@H](CS(=O)(=O)N2CCSC2)CC1` [Example 124, N-methyl-N-{trans-4-[(1,3-thiazolidin-3-ylsulfonyl)-methyl]cyclohexyl}-7H-pyrrolo[2,3-d]pyrimidin-4-amine] are 8.8 nM, 29.5 nM and 122 nM.
Taken in the same sequence, the figures for `CN(c1ncnc2[nH]ccc12)[C@H]1CC[C@H](CS(=O)(=O)N2CCCC3(CNC(=O)C3)C2)CC1` (stereo partly drawn) [Example 127, 7-[({trans-4-[methyl(7H-pyrrolo[2,3-d]pyrimidin-4-yl)amino]cyclohexyl}-methyl)sulfonyl]-2,7-diazaspiro[4.5]decan-3-one] were 14.4 nM, 62.5 nM and 1000 nM.
Take `C[C@@H]1C[C@@H](CS(=O)(=O)N2CCC[C@@H](O)C2)CC[C@@H]1N(C)c1ncnc2[nH]ccc12` [Example 129, (3R)-1-[({(1S,3R,4S)-3-methyl-4-[methyl(7H-pyrrolo[2,3-d]pyrimidin-4-yl)amino]cyclohexyl}-methyl)sulfonyl]piperidin-3-ol]: the IC50 at JAK1 is 1.7 nM; at JAK2, 6.89 nM; at JAK3, 19.4 nM.
Taken in the same sequence, the figures for `C[C@@H]1C[C@@H](CS(=O)(=O)N2CCC[C@H](O)C2)CC[C@@H]1N(C)c1ncnc2[nH]ccc12` [Example 131, (3S)-1-[({(1S,3R,4S)-3-methyl-4-[methyl(7H-pyrrolo[2,3-d]pyrimidin-4-yl)amino]cyclohexyl}methyl)-sulfonyl]piperidin-3-ol] were 5.28 nM, 12 nM and 32.5 nM.
The corresponding values for `CN(c1ncnc2[nH]ccc12)[C@H]1CC[C@H](CS(=O)(=O)N2CCC[C@@H](OC(=O)C(C)(C)C)C2)CC1` [Example 134, trans-(R)-1-((4-(methyl(7H-pyrrolo[2,3-d]pyrimidin-4-yl)amino)cyclohexyl)methylsulfonyl)piperidin-3-yl pivalate] are 0.0227 nM, 0.129 nM and 3.89 nM.
Taken in the same sequence, the figures for `C[C@H]1CN(S(=O)(=O)C[C@H]2CC[C@H](N(C)c3ncnc4[nH]ccc34)CC2)C[C@@H]1CO` [Example 135, {(3r,4r)-4-methyl-1-[({trans-4-[methyl(7H-pyrrolo[2,3-d]pyrimidin-4-yl)amino]cyclohexyl}methyl)sulfonyl]pyrrolidin-3-yl}methanol] were 0.00199 nM, 0.0165 nM and 0.198 nM.
Consider `CN1CCN(S(=O)(=O)C[C@H]2CC[C@H](N(C)c3ncnc4[nH]ccc34)CC2)CC1` [Example 136, N-methyl-N-(trans-4-{[(4-methylpiperazin-1-yl)sulfonyl]methyl}cyclohexyl)-7H-pyrrolo[2,3-d]pyrimidin-4-amine], for which the IC50 came to 0.0245 nM on JAK1, 0.109 nM on JAK2 and 1.29 nM on JAK3.
Taken in the same sequence, the figures for `CC(C)COC1CCCN(S(=O)(=O)C[C@H]2CC[C@H](N(C)c3ncnc4[nH]ccc34)CC2)C1` (stereo partly drawn) [Example 138, N-(trans-4-{[(3-isobutoxypiperidin-1-yl)sulfonyl]methyl}cyclohexyl)-N-methyl-7H-pyrrolo[2,3-d]pyrimidin-4-amine] were 0.00133 nM, 0.00767 nM and 0.132 nM.
Taken in the same sequence, the figures for `COCCOC1CCCN(S(=O)(=O)C[C@H]2CC[C@H](N(C)c3ncnc4[nH]ccc34)CC2)C1` (stereo partly drawn) [Example 139, N-[trans-4-({[3-(2-methoxyethoxy)piperidin-1-yl]sulfonyl}methyl)cyclohexyl]-N-methyl-7H-pyrrolo[2,3-d]pyrimidin-4-amine] were 0.00125 nM, 0.00405 nM and 0.0368 nM.
Taken in the same sequence, the figures for `CCOP(=O)(OCC)O[C@@H]1CCCN(S(=O)(=O)C[C@H]2CC[C@H](N(C)c3ncnc4[nH]ccc34)CC2)C1` [Example 140, Diethyl (3R)-1-[({trans-4-[methyl(7H-pyrrolo[2,3-d]pyrimidin-4-yl)amino]cyclohexyl}methyl)sulfonyl]piperidin-3-yl phosphate] were 0.0235 nM, 0.116 nM and 1.8 nM.
Regarding `CN(c1ncnc2[nH]ccc12)[C@H]1CC[C@H](CS(=O)(=O)N2CCC[C@@H](OP(=O)(O)O)C2)CC1` [Example 141, (3R)-1-[({trans-4-[methyl(7H-pyrrolo[2,3-d]pyrimidin-4-yl)amino]cyclohexyl}methyl)sulfonyl]piperidin-3-yl dihydrogen phosphate], the half-inhibitory concentration (IC50) at JAK1 stood at 0.0263 nM; at JAK2 it was 0.106 nM; on JAK3, 0.768 nM.
